For this test, the system named is Aspergillus flavus. Put plainly: Antifungal activity against Aspergillus flavus at 200 ug/disk by disk assay. To be noted: read-out: IZ. It counts as functional.

Turning to `CC(=O)O[C@@H]1C[C@]2(C)C3=C(CC[C@H]2C(C)(C)[C@@H]1O[C@@H]1O[C@H](CO)[C@@H](O)[C@H](O)[C@H]1O)[C@@]1(C)CC[C@](C)([C@H](C)C(C)C)[C@@H](C(=O)O)[C@]1(C)CC3` [FUSCOATROSIDE], the zone of inhibition at 200 µg/disc came out at 18 mm.
